According to patent US8324246B2, “Indol carboxylic acid bispyridyl carboxamide derivatives, pharmaceutically acceptable salt thereof, preparation method and composition containing the same as an active ingredient” (Korea Research Institute of Chemical Technology, priority 2008, dated 2012):
Where two headings read alike, the source gives them in different places.

Tests used:
[1] = target: T1, human gene recombinant 5-HT2c receptor expressed in CHO-K1 cell (Homo sapiens, UniProt P28335); assay: Binding affinity to the serotonin 5-HT2c receptor ([3H]mesulergine)
T1 construct: purchased Euroscreen, Belgium; host or cells: CHO-K1
T1 sequence (P28335 33-458): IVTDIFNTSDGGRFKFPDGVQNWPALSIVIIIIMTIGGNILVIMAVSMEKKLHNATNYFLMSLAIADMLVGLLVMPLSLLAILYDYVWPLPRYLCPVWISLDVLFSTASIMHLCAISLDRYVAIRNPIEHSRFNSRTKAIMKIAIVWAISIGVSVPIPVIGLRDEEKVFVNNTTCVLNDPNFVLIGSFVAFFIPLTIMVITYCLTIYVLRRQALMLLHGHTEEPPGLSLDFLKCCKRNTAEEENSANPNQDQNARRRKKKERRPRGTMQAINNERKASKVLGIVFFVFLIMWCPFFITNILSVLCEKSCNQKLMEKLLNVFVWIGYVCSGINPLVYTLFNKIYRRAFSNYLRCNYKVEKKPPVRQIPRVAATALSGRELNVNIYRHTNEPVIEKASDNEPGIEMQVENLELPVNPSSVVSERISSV
Method: As a receptor, a human gene recombinant 5-HT2c receptor expressed in CHO—K1 cell was purchased from Euroscreen, Belgium and used in the experiment, and as a radioactive isotope, [3H]mesulergine (Amersham Biosciences, UK).
A final volume of 0.25 ml reaction mixture was prepared by adding 50 mM Tris-HCl buffer (pH 7.7) containing one of the compounds in Examples 1-29 or Comparative Examples 1-2, 1 nM of [3H]mesulergine, 5-HT2c receptor membranes (4 D/well), 0.1% ascorbic acid and 10 µM pargyline, and incubated at 37° C. for 30 minutes. After incubation, the reaction was terminated by the rapid filtration using an Inotech harvester (Inotech) through a Wallace GF/C glass fiber filter (Wallac, Finland) which was presoaked in 1% BSA, and then washed with ice-cold 50 mM Tris-HCl buffer. The filter was covered with MeltiLex, sealed in a sample bag followed by drying in the oven, and counted by MicroBeta Plus (Wallac). Non-specific binding was determined in the presence of […] Mianserin. Three repeating experiments were carried out with 7-8 concentrations of the compound in Examples 1-29 or the compound in comparative examples 1-2, run in duplicate tubes, and isotherms from the three assays were calculated by a nonlinear regression analysis (GraphPad Prism Program, San Diego, USA) to yield IC50 values.

5-HT6 = 5-HT6 (Homo sapiens, UniProt P50406); assay: Receptor selectivity binding, 5-HT6; settings: Table 3
Chain of 5-HT6 (P50406 whole entry, species assumed): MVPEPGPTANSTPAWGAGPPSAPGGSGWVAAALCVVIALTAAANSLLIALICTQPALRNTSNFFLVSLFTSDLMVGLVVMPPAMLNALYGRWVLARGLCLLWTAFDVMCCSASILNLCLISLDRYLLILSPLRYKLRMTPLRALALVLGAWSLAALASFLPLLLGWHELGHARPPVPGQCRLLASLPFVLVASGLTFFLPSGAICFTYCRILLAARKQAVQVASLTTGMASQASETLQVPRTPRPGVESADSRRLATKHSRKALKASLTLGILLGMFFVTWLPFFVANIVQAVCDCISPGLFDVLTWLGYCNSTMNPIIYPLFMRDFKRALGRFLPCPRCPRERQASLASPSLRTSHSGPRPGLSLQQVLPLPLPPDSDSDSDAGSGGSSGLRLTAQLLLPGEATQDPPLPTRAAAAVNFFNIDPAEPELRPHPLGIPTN
Method: (§1) For their high binding affinities for 5-HT2c, compounds in Examples 14 to 18, 20, and 22 or in Comparative Example 1 were used for the experiment with reaction mixtures. Except that CNS receptors such as 5-HT1a, 5-HT2a, 5-HT7, D2, D3 or D4 other than 5-HT2c were used as a receptor, IC50 values (nM) were measured in the same manner as in Experimental Example 1.

D3 = D3 (Homo sapiens, UniProt P35462); assay: Receptor selectivity binding, D3; settings: Table 3
Chain of D3 (P35462 whole entry): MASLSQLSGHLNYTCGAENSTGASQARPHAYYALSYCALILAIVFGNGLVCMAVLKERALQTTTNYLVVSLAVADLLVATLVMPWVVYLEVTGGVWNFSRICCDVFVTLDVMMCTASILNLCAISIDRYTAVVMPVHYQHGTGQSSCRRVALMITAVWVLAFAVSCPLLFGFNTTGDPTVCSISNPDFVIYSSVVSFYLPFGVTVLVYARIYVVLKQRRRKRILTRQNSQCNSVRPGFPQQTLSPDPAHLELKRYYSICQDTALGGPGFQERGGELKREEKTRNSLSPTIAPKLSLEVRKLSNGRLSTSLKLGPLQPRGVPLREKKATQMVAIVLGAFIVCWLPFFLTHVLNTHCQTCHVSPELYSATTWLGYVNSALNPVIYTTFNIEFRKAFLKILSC
Method: as §1

5-HT2a = 5-HT2a (Homo sapiens, UniProt P28223); assay: Receptor selectivity binding, 5-HT2a; settings: Table 3
Chain of 5-HT2a (P28223 whole entry, species assumed): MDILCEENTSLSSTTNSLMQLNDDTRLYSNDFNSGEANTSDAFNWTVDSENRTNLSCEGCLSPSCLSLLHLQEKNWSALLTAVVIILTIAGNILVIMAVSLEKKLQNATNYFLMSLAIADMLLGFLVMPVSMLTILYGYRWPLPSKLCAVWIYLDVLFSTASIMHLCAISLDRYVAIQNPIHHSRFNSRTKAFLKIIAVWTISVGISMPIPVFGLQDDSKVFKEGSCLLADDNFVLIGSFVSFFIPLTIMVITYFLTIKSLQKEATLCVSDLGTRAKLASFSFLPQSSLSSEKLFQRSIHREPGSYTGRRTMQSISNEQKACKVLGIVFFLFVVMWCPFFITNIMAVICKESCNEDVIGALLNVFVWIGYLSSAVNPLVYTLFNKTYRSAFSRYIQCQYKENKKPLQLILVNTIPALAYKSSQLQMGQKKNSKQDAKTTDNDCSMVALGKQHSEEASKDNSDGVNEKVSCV
Method: as §1

5-HT7 = 5-HT7 (Homo sapiens, UniProt P34969); assay: Receptor selectivity binding, 5-HT7; settings: Table 3
Chain of 5-HT7 (P34969 whole entry, species assumed): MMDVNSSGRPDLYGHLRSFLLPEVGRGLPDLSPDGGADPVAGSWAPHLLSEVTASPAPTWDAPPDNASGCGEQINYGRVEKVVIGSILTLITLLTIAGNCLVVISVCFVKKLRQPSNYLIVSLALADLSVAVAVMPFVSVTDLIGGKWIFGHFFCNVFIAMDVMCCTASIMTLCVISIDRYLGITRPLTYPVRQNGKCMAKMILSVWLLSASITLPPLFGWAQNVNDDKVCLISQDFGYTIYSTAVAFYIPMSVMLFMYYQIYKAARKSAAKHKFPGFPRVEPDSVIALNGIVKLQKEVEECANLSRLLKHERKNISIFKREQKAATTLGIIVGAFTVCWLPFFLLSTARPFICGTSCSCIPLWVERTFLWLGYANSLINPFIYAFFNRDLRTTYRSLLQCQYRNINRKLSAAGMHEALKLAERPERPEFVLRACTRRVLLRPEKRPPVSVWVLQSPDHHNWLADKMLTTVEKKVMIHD
Method: as §1

5-HT1a = target: T2, 5-HT1a (Homo sapiens, UniProt P08908); assay: Receptor selectivity binding, 5-HT1a; settings: Table 3
T2 sequence (P08908 1-422): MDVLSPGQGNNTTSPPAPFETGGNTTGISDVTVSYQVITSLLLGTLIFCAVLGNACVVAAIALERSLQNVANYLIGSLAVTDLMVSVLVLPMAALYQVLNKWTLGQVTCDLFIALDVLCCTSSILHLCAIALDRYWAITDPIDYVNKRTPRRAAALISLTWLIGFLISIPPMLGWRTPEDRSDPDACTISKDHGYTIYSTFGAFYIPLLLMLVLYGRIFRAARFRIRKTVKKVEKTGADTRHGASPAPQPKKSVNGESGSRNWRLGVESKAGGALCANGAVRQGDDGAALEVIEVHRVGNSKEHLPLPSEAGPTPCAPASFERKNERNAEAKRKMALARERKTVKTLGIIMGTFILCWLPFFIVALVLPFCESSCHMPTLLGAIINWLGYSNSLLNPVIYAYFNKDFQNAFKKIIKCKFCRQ
Method: as §1

D2 = D2 (Homo sapiens, UniProt P14416); assay: Receptor selectivity binding, D2; settings: Table 3
Chain of D2 (P14416 whole entry): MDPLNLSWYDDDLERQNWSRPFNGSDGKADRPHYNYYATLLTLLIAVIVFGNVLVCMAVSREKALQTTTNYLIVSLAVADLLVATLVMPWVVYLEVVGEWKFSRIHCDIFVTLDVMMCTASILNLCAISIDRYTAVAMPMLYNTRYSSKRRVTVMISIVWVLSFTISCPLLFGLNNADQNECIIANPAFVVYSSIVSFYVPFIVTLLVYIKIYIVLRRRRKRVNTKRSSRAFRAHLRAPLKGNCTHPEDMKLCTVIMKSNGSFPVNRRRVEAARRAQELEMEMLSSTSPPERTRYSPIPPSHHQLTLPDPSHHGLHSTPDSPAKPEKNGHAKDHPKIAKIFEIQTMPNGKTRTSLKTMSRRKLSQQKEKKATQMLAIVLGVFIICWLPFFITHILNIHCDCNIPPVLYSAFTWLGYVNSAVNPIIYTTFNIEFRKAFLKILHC
Method: as §1

D4 = target: T3, D4 (Homo sapiens, UniProt P21917); assay: Receptor selectivity binding, D4; settings: Table 3
T3 sequence (P21917 1-419): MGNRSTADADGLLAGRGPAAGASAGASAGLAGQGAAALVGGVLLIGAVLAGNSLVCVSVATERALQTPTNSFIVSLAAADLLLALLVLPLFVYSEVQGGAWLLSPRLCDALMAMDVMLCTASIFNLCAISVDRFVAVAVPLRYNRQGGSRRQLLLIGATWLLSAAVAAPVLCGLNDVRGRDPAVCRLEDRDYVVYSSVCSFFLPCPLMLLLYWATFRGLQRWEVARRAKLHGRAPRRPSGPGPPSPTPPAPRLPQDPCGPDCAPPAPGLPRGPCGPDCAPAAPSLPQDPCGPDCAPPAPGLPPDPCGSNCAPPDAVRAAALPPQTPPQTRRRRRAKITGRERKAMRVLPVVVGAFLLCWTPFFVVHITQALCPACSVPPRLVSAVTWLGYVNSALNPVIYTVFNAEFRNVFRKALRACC
Method: as §1

[2] = [3H]mesulergine 1 nM, 37° C. 30 minutes, Table 2, read-out: IC50

IC50 [1, 2] [µM]	melting point [°C]	Compound	also measured
0.0013	220 to 222	Cc1cc2c(cc1C(F)(F)F)N(C(=O)Nc1ccc(OCc3ccccn3)nc1)CC2 [Comparative Example 2, SB-247853]	–
0.321	128 to 129	Cc1ncccc1Oc1ccc(NS(=O)(=O)c2coc3ccccc23)cn1 [Example 1, benzofuran-3-sulfonic acid[6-(2-methyl-pyridine-3-yloxy)-pyridine-3-yl]-amide]	–
0.572	93 to 95	Cc1ncccc1Oc1ccc(NS(=O)(=O)c2csc3ccccc23)cn1 [Example 2, benzo[b]thiophene-3-sulfonic acid[6-(2-methyl-pyridine-3-yloxy)-pyridine-3-yl]-amide]	–
0.167	52 to 55	Cc1ncccc1Oc1ccc(NC(=O)c2coc3ccccc23)cn1 [Example 3, benzofuran-3-carboxylic acid[6-(2-methyl-pyridine-3-yloxy)-pyridine-3-yl]-amide]	–
0.05	81 to 83	Cc1ncccc1Oc1ccc(NC(=O)c2csc3ccccc23)cn1 [Example 4, benzo[b]thiophene-3-carboxylic acid[6-(2-methyl-pyridine-3-yloxy)-pyridine-3-yl]-amide]	–
0.067	108 to 110	Cc1ncccc1Oc1ccc(NC(=O)c2c[nH]c3ccccc23)cn1 [Example 6, 1H-indole-3-carboxylic acid[6-(2-methyl-pyridine-3-yloxy)-pyridine-3-yl]-amide]	–
0.302	156 to 158	Cc1ncccc1Oc1ccc(NC(=O)c2ccc3ccccc3c2)cn1 [Example 8, naphthalene-2-carboxylic acid[6-(2-methyl-pyridine-3-yloxy)-pyridine-3-yl]-amide]	–
> 10	–	Cc1ncccc1Oc1ccc(NCc2c[nH]c3ccccc23)cn1 [Example 9, (1H-indole-3-ylmethyl)-[6-(2-methyl-pyridine-3-yloxy)-pyridine-3-yl]-amine]	–
0.023	–	Cc1ncccc1Oc1ccc(NC(=S)c2c[nH]c3ccccc23)cn1 [Example 10]	–
0.474	–	Cc1ncccc1Oc1ccc(NC(=O)c2cn(C)c3ccccc23)cn1 [Example 11, 1-methyl-1H-indole-3-carboxylid acid[6-(2-methyl-pyridine-3-yloxy)-pyridine-3-yl]-amide]	–
9.44	–	Cc1ncccc1Oc1ccc(N(C)C(=O)c2c[nH]c3ccccc23)cn1 [Example 12, 1H-indole-3-carboxylic acid methyl-[6-(2-methyl-pyridine-3-yloxy)-pyridine-3-yl]-amide]	–
0.05	–	O=C(Nc1ccc(Oc2cncnc2)nc1)c1c[nH]c2ccccc12 [Example 19, 1H-indole-3-carboxylic acid[6-(pyrimidin-5-yloxy)-pyridine-3-yl]-amide]	–
2.25	–	Cc1ccc(Oc2ccc(NC(=O)c3c[nH]c4ccccc34)cn2)cn1 [Example 21, 1H-indole-3-carboxylic acid[6-(6-methyl-pyridine-3-yloxy)-pyridine-3-yl]-amide]	–
0.106	–	O=C(Nc1ccc(Oc2cccnc2Br)nc1)c1c[nH]c2ccccc12 [Example 23, 1H-indole-3-carboxylic acid[6-(2-bromo-pyridine-3-yloxy)-pyridine-3-yl]-amide]	–
0.542	–	O=C(Nc1ccc(Oc2ccccc2)nc1)c1c[nH]c2ccccc12 [Example 25, 1H-indole-3-carboxylic acid(6-phenoxy-pyridine-3-yl)-amide]	–
> 1	–	O=C(Nc1cccnc1)c1c[nH]c2ccccc12 [Example 26, 1H-indole-3-carboxylic acid pyridine-3-ylamide]	–
0.214	–	O=C(Nc1ccc(-c2cccnc2)cc1)c1c[nH]c2ccccc12 [Example 27, 1H-indole-3-carboxylic acid (4-pyridine-3-yl-phenyl)-amide]	–
0.007	–	Cc1ccc2c(C(=O)Nc3ccc(Oc4cccnc4Cl)nc3)c[nH]c2c1 [Example 28, 6-methyl-1H-indole-3-carboxylic acid[6-(2-chloro-pyridine-3-yloxy)-pyridine-3-yl]-amide]	–
> 10	–	COc1nc(OC)nc(Oc2ccc(NC(=O)c3c[nH]c4ccccc34)cc2)n1 [Example 29, 1H-indole-3-carboxylic acid[4-(4,6-dimethoxy-[1,3,5]triazine-2-ylxoxy)-phenyl]-amide]	–

Compound	IC50 [1, 2] [µM]	melting point [°C]	also measured
1H-indole-2-carboxylic acid[6-(2-methyl-pyridine-3-yloxy)-pyridine-3-yl]-amide [Example 5]	0.059	–	–
Cc1cc2c(cc1C(F)(F)F)N(C(=O)Nc1ccc(Oc3cccnc3C)nc1)CC2 [Comparative Example 1, SB-243213, reference compound]	0.0007	–	IC50 ([1]; Table 3, read-out: IC50 5-HT2c): 0.0007 µM; IC50 (5-HT6): 0.667 µM; IC50 (D3): > 1 µM; IC50 (5-HT2a): 0.0324 µM; IC50 (5-HT7): > 1 µM; IC50 (5-HT1a): > 1 µM; IC50 (D2): > 1 µM; IC50 (D4): > 10 µM
Cc1ncccc1Oc1ccc(NC(=O)c2nc3ccccc3[nH]2)cn1 [Example 7, 1H-benzoimidazole-2-carboxylic acid[6-(2-methyl-pyridine-3-yloxy)-pyridine-3-yl]-amide]	> 10	191 to 193	–
Cc1ncccc1Oc1ccc(N(C)C(=O)c2cn(C)c3ccccc23)cn1 [Example 13, 1-methyl-1H-indole-3-carboxylic acid methyl-[6-(2-methyl-pyridine-3-yloxy)-pyridine-3-yl]-amide]	6.37	–	–
Cc1ccc2[nH]cc(C(=O)Nc3ccc(Oc4cccnc4C)nc3)c2c1 [Example 14, 5-methyl-1H-indole-3-carboxylic acid[6-(2-methyl-pyridine-3-yloxy)-pyridine-3-yl]-amide]	0.0045	–	IC50 ([1]; Table 3, read-out: IC50 5-HT2c): 0.0045 µM; IC50 (5-HT6): > 10 µM; IC50 (D3): > 10 µM; IC50 (5-HT2a): > 1 µM; IC50 (5-HT7): > 10 µM; IC50 (5-HT1a): > 10 µM; IC50 (D2): > 10 µM; IC50 (D4): > 10 µM
O=C(Nc1ccc(Oc2cccnc2)nc1)c1c[nH]c2ccccc12 [Example 24, 1H-indole-3-carboxylic acid[6-(pyridine-3-yloxy)-pyridine-3-yl]-amide]	0.0016	–	–
